Test [1] deals with Gray mold germs (Botrytis cinerea, strain 2018105). As to the kind of experiment: Evaluation test for gray mold (mycelial growth on PDA medium). The class given is cell-based. The note with it: final concentration 500 ppm in PDA medium; mycelia diameter after two days at 27° C.; average of 3. Here is the method:
The fluorine-containing pyrimidine compound prepared in Example 1, 2, 3, 4, 12 or 16 was dissolved in DMSO and diluted to a concentration of 50000 ppm. To 3 ml of a dissolved PDA medium, 30 μL of diluted DMSO solution each was added and stirred with a pipette. The mixture was placed in a well of a 6-well plate and allowed to solidify (final concentration: 500 ppm, repeated 3 times each). Gray mold germs (Botrytis cinerea, strain 2018105) grown in a PDA medium was cut out together with the medium with a biopsy punch having a diameter of 0.4 cm, and placed on the center of the PDA medium in the 6-well plate containing the DMSO solution so as to be grown at 27° C. After two days, the diameters of mycelia were measured and the control value was calculated. The control value was calculated according to the following formula. In the formula described below, “untreated” represents PDA medium to which only DMSO was added as the test solution. [formula]

Another test relates to cucumber powdery mildew. Kind of test: Evaluation test for powdery mildew of cucumbers (cucumber leaf disc). The class given is in vivo. The conditions noted are these: blotch area after 12 days, 25° C. How it is done:
A fluorine-containing pyrimidine compound prepared in Examples 12, 13 or 15 was dissolved in acetone and diluted to a concentration of 500 ppm. Subsequently, a cucumber leaf disc (diameter 20 mm) was placed in a diluted acetone solution and completely wetted. The cucumber leaf disc was then placed so that the back surface of the cucumber leaf disc contacted a separately prepared plain agar medium, and air-dried. After air-drying, a cucumber powdery mildew spore suspension was evenly sprayed on the cucumber leaf disc and air-dried. The cucumber leaf disc was then allowed to stand in an incubator (25° C., illuminated for 12 hours), and after 12 days, the blotch area was examined to calculate the control value. The control value was calculated according to the following formula. In the following formula, “untreated” means that the cucumber leaf disc was wetted with only acetone as the test solution, and “untreated section” represents the corresponding section. A fluorine-containing pyrimidine compound prepared in Examples 12, 13 or 15 was dissolved in acetone and diluted to a concentration of 100 ppm. Subsequently, a cucumber leaf disc (diameter 20 mm) was placed in a diluted acetone solution and completely wetted. The cucumber leaf disc was placed so that the back surface of the cucumber leaf disc contacted a separately prepared plain agar medium, and air-dried. After air-drying, a cucumber powdery mildew spore suspension was evenly prayed on the cucumber leaf disc and air-dried. The cucumber leaf disc was then allowed to stand in an incubator (25° C., illuminated for 12 hours), and after 12 days, the blotch area was examined to calculate the control value. The control value was calculated according to the following formula. In the following formula, “untreated” means that the cucumber leaf disc was wetted with only acetone as the test solution, and “untreated section” represents the corresponding section. [formula] (Evaluation Test for Gray Mold (500 ppm))

SMILES strings stand for the structures.

Compound `CCCCc1ccc(Nc2nc(-c3ccccn3)nc(OC)c2C(F)(F)F)cc1` [Example 3, N-(4-butylphenyl)-6-methoxy-2-(2-pyridyl)-5-(trifluoromethyl)-4-pyrimidinamine] registered a Control value in test [1] of 76.9. Consider `COc1nc(-c2ccccn2)nc(Nc2ccc(C)cc2)c1C(F)(F)F` [Example 15, 6-methoxy-N-(4-methylphenyl)-2-(2-pyridyl)-5-(trifluoromethyl)-4-pyrimidinamine], for which the Control value with cucumber powdery mildew (100 ppm in acetone) and in the test on cucumber powdery mildew (500 ppm in acetone) was 100.0 in each case. As to `COc1nc(-c2ccccn2)nc(Nc2cccc(C)c2)c1C(F)(F)F` [Example 2, 6-methoxy-N-(3-methylphenyl)-2-(2-pyridyl)-5-(trifluoromethyl)-4-pyrimidinamine], the Control value in test [1] stood at 86.8.

In test [1], `FC(F)(F)c1c(Cl)nc(-c2ccccn2)nc1Nc1ccccc1` [Example 16, 6-chloro-N-phenyl-2-(2-pyridyl)-5-(trifluoromethyl)-4-pyrimidinamine] showed a Control value of 92.4. Consider `COc1nc(-c2ccccn2)nc(Nc2ccc(Cl)cc2)c1C(F)(F)F` [Example 13, N-(4-chlorophenyl)-6-methoxy-2-(2-pyridyl)-5-(trifluoromethyl)-4-pyrimidinamine], for which the Control value was determined as 80.0 with cucumber powdery mildew (100 ppm in acetone) and 98.8 in the test with cucumber powdery mildew (500 ppm in acetone). In turn, `COc1nc(-c2ccccn2)nc(Nc2ccc(C)c(C)c2)c1C(F)(F)F` [Example 4, 6-methoxy-N-(3,4-dimethylphenyl)-2-(2-pyridyl)-5-(trifluoromethyl)-4-pyrimidinamine] came in with a Control value in test [1] of 86.8. As to `COc1nc(-c2ccccn2)nc(Nc2ccc(C)cc2C)c1C(F)(F)F` [Example 12, 6-methoxy-N-(2,4-dimethylphenyl)-2-(2-pyridyl)-5-(trifluoromethyl)-4-pyrimidinamine], the figures for the Control value (in the test with cucumber powdery mildew (100 ppm in acetone); in the test on cucumber powdery mildew (500 ppm in acetone); in test [1]) were 91.8, 100.0 and 94.3, respectively. With `COc1nc(-c2ccccn2)nc(Nc2ccccc2)c1C(F)(F)F` [Example 1, 6-methoxy-N-phenyl-2-(2-pyridyl)-5-(trifluoromethyl)-4-pyrimidinamine], the Control value in test [1] was 90.5.

The values above are taken from patent publication US12522580B2, “Fluorine-containing pyrimidine compounds, harmful fungus control agent, and method for producing fluorine-containing pyrimidine compounds” (UNIMATEC CO., LTD., priority 2021, dated 2026).
